Experimental data published in patent US11633421B2, “Use of NAD precursors for improving maternal health and/or offspring health” (UNIVERSITY OF IOWA RESEARCH FOUNDATION, priority 2016, dated 2023).

Legend:
[1] = Balance beam test of offspring; assay type: in vivo, mice; details: 85 days old male and female offspring
Text: FIGS. 22A-C. 64 days after their mother's intervention, 85-day-old adults of NR-supplemented mothers have better performance on a balance beam. They cross a beam balance faster (untrained); they slip fewer times; and they almost never grip the beam with their tail. […] The order of the bars from left to right are: males of normal chow (NC) mothers (white with light grey outline), followed by males of NR-supplemented mothers (filled light grey), followed by females of NC mothers (white with dark grey outline), followed by females of NR-supplemented mothers (filled dark grey). The improved physical functions of adult offspring of NR-supplemented mothers were not confined to advantages in making less anxious choices about where to move in space, light and dark. At 85 days old, when mice were again 64 days past their mother's intervention—again all mice were on NC show for 64 days—their untrained ability to cross a balance beam was tested. […] This was not anticipated.

[2] = Dark/light chamber test of offspring; assay type: in vivo, mice
Text: FIGS. 20A-C. […] The order of the bars from left to right are: males of normal chow (NC) mothers (white with light grey outline), followed by males of NR-supplemented mothers (filled light grey), followed by females of NC mothers (white with dark grey outline), followed by females of NR-supplemented mothers (filled dark grey). It was considered interesting that males and female adults of NR-supplemented mothers maintain distinct physical advantages into adulthood on the basis of the mother's micronutrition. […] This could be interpreted either as a simple increase in activity and/or a less anxious state of being.

[3] = Pup growth and weanling body composition (post-partum maternal NR); assay type: in vivo, mice
Procedure: FIG. 15. Maternal NR increases pup growth early in the neonatal period. Neonatal pups body weight from Day 0 to Day 14 (n=5 litter per group). FIGS. 16A-D. 21 day old pups of NR-supplemented mothers are bigger. Males and females were analyzed separately. The order of the bars from left to right are: males of normal chow (NC) mothers (white with light grey outline), followed by males of NR-supplemented mothers (filled light grey), followed by females of NC mothers (white with dark grey outline), followed by females of NR-supplemented mothers (filled dark grey). […] As shown in FIG. 16A-C, 21 day old weanlings of NR-supplemented mothers are larger in overall mass, fat mass and lean mass.

[4] = Open field test of offspring; assay type: in vivo, mice
Procedure: The order of the bars from left to right are: males of normal chow (NC) mothers (white with light grey outline), followed by males of NR-supplemented mothers (filled light grey), followed by females of NC mothers (white with dark grey outline), followed by females of NR-supplemented mothers (filled dark grey). […] These adults were treated identically ever since weaning. The only difference is whether the mother was NR-supplemented for 21 days. They are faster and more adventurous. The order of the bars from left to right are: males of normal chow (NC) mothers (white with light grey outline), followed by males of NR-supplemented mothers (filled light grey), followed by females of NC mothers (white with dark grey outline), followed by females of NR-supplemented mothers (filled dark grey). At 15 days of age, it was observed that the offspring of NR-supplemented mothers were more physically active. In this experiment, the physical activity of male and female offspring of mothers supplemented or not with NR at 15 days of age was quantified. […] At 21 days, the offspring were removed from their mothers and put on normal chow […]. While offspring of NR could have been put on NR chow, we aimed to determine if the 21 day intervention to their mothers was sufficient for a lasting effect on their neurocognitive and/or physical development.

[5] = Transmission of heavy-atom labeled oral NR into milk; assay type: in vivo, mice; details: oral NR labeled with heavy atoms in nicotinamide and ribose moieties, gavage to lactating mothers
Procedure: FIGS. 9A-B. Orally administered NR is not directly transmitted via milk.
(§1) A series of in vivo murine experiments were performed to evaluate the effects of nicotinamide riboside on milk production. […] As shown in FIGS. 8A-C, the concentration of protein, carbohydrate and fat in the milk of NR-supplemented mothers was normal. Because there is approximately 2-fold more milk produced by NR-supplemented mothers, NR-supplemented mothers transmit more calories to their offspring, which thereby assists maternal weight loss and neonatal development. In FIG. 9A, the concentration of NAD precursor vitamins in the milk from control mothers and NR-supplemented mothers was determined. […] Oral NR was labeled with heavy atoms in the nicotinamide and ribose moieties of NR and this was provided to lactating mothers by gavage.

[6] = tested on: brain derived neurotrophic factor (BDNF); assay: BDNF in milk; assay type: in vivo, mice; details: NR-supplemented mothers
Procedure: FIG. 10. NR supplemented mothers produce milk with higher brain-derived neurotrophic factor. Milk from NC and NR mothers was tested. […] Based on the advanced brain and neurobehavioral development that was observed, it was investigated whether NR-supplemented mothers produced more BDNF in their milk.

[7] = tested on: NAD biosynthetic genes in the liver; assay: Hepatic NAD biosynthetic gene expression and NAD metabolites; assay type: in vivo; details: lactating mice with vs without NR
Text: Lactation boosts NAD biosynthetic genes (FIG. 11A) and NAD levels (FIG. 11B) in the liver. […]. Lactation seems to depress levels of NR (FIG. 11C) and Nam (FIG. 11D) in the liver.

UCP1 = UCP1 expression in mammary tissue; assay type: in vivo, mice; details: NR-supplemented vs NC mothers
Text: (§2) FIGS. 14A-B. Postpartum NR supplementation promotes mammary gland development (n=5 mice per group) (FIG. 14A). NR increases heat loss by increasing expression of UCP1 (FIG. 14B). […] In addition, the size of the mammary tissue itself is greater in NR-supplemented mothers than in non-supplemented mothers (FIG. 14A).

[8] = NAD precursor vitamins in milk; assay type: in vivo, mice
Procedure: as §1

[9] = Mammary gland development (size of mammary tissue); assay type: in vivo, mice; details: NR-supplemented vs non-supplemented mothers
Text: as §2

[10] = 21 day old weanlings of NR-supplemented mothers
[11] = NR-supplemented vs non-supplemented mothers

**Q.** Which results are given for `NC(=O)c1ccc[n+]([C@@H]2O[C@H](CO)[C@@H](O)[C@H]2O)c1` [NR, nicotinamide riboside]?
**A.** slips on balance beam [1]: fewer slips; time to cross a balance beam (untrained) [1]: cross faster; use of tail to grip the balance beam [1]: virtually no use of their tails; time in the light ([2]; 75 day-old female offspring): spend more time in the light; time in the light chamber of a dark/light chamber ([2]; 75 days of age, offspring of NR-supplemented mothers): more willing to spend time in the light chamber; brain weight of weanlings ([3]; 21 day old females): tend to have larger brain weight; fat mass of weanlings [3, 10]: larger; lean mass of weanlings [3, 10]: larger; overall mass of weanlings [3, 10]: larger; neonatal size (pup body weight) ([3]; particularly at day 7 and 9): boosts neonatal size; physical activity in open field test ([4]; 15 days of age, first 5 minutes): much more physically active; time in the center of the open field test ([4]; 15 days of age, males, middle 5 minute epoch): significant amount of time in the center; time in the center of open field test ([4]; 70 day-old adult males): less time in the center; immobile time in open field test ([4]; 70 day-old adults): tendency toward less immobile time; speed in open field test ([4]; 70 day-old adults): move faster; distance covered in open field test ([4]; 70 day-old adults, 49 days after mother's intervention): cover more distance; labeled species released into milk [5]: only single labeled nicotinamide and no double-labeled NR; concentration of BDNF in the milk vs non-supplemented mothers [6]: 2 fold; NAD biosynthetic genes and NAD levels in the liver [7]: does not superinduce; hepatic NAD biosynthetic gene expression [7]: did not further increase; levels of NR and Nam in the liver [7]: depresses the accumulation of these metabolites in the liver even more; expression of UCP1 in mammary tissue (UCP1): increase in expression; NR concentration in milk [8, 11]: moderately higher; nicotinamide (Nam) concentration in milk [8, 11]: moderately higher; NAD precursor vitamins (total B3) transmitted ([8]; concentration coupled with larger milk volume): significantly more; size of the mammary tissue [9]: greater
